According to patent publication US9365588B2, “Benzoxazines as modulators of ion channels” (Vertex Pharmaceuticals Incorporated, priority 2011, dated 2016):

The molecules below were run against human NaV 1.7 (Homo sapiens, UniProt Q15858) (assay: E-VIPR optical membrane potential assay with electrical stimulation). Conditions: sodium channel inhibition; read-out: Binned Activity Data (IC50).
Assay type: cell-based
Summary of the method: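 Membrane-potential read-out: background-subtracted 460 nm/580 nm ratio during a 9 s current-controlled stimulus, 400 Hz scan. Before stimulation, NaV1.7-HEK cells carried coumarin/oxonol dye and compound (final DMSO 0.625%) for 20–35 min at room temperature; tetracaine 125 μM served as positive control.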

human NaV 1.7, sequence (Q15858 whole entry): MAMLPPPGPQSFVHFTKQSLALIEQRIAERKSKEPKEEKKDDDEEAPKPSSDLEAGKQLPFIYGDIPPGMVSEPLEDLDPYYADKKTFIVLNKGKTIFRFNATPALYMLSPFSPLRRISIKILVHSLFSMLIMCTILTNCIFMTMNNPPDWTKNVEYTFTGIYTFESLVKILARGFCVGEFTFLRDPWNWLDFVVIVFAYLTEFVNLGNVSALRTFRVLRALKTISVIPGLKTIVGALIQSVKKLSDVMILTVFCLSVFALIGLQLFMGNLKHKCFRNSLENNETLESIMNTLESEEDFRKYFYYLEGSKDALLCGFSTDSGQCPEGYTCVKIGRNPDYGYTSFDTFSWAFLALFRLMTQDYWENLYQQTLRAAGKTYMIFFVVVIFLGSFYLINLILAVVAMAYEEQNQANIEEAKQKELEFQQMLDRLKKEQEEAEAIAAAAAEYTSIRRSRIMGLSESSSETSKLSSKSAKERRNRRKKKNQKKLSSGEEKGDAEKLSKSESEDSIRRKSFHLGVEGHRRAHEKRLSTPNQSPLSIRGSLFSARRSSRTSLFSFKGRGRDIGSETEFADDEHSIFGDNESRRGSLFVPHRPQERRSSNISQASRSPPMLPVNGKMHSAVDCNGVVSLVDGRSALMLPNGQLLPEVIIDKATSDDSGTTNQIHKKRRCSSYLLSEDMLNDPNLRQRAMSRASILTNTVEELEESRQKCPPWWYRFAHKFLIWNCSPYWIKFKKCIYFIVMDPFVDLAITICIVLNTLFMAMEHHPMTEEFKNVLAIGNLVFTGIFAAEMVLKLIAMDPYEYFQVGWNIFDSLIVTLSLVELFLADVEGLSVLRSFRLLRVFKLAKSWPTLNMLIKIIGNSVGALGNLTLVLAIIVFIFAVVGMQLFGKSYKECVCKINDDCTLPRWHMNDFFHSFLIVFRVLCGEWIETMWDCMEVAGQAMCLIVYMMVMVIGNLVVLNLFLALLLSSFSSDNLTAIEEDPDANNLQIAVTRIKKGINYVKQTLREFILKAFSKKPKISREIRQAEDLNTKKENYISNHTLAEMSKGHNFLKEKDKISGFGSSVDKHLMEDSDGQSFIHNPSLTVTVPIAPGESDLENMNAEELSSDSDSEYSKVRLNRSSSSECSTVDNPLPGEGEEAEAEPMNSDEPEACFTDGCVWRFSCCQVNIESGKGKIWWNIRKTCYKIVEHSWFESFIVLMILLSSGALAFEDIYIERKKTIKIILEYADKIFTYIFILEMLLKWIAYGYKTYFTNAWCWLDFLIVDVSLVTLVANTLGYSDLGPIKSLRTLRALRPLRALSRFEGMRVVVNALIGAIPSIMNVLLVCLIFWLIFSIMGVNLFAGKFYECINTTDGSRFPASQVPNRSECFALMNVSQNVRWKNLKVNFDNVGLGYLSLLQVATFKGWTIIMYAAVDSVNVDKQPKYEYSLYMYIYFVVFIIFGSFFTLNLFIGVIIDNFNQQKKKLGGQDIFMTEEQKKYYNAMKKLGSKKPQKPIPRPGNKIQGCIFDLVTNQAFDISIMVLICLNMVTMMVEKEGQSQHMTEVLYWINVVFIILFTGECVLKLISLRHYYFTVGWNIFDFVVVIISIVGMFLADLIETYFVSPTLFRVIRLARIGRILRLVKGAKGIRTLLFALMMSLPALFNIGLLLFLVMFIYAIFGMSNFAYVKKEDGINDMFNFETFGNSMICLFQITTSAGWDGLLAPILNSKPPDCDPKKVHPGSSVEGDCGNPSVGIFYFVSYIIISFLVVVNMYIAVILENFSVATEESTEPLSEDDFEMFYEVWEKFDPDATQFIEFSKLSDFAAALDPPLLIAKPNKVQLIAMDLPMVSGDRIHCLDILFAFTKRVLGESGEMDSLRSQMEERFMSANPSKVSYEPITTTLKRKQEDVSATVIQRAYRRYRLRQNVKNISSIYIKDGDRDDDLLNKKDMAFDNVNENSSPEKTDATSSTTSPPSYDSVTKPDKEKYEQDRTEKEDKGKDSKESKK

IC50 | Compound
≤ 2000 nM | Cc1cc(C(=O)N2CCC3(CC2)Oc2cccc(F)c2-n2c(C#N)ccc23)ccc1OC(C)C [Compound 416]
≤ 2000 nM | N#Cc1ccc2n1-c1ccccc1OC21CCN(C(=O)c2ccc(C3(O)COC3)cc2)CC1 [Compound 864]
≤ 2000 nM | COc1cc(C(=O)N2CCC3(CC2)Oc2ccccc2-n2c(C#N)ccc23)ccc1O [Compound 206]
≤ 2000 nM | CC(C)(O)c1ccc(C(=O)N2CCC3(CC2)Oc2ccccc2-n2c(C(F)(F)F)ccc23)cc1F [Compound 424]
≤ 2000 nM | CC[C@@H](C)Oc1ccc(C(=O)N2CCC3(CC2)Oc2cc(Cl)ccc2-n2cccc23)cc1OC [Compound 681]
≤ 2000 nM | COc1cc(C(=O)N2CCC3(CC2)Oc2cc(F)ccc2-n2cccc23)ccc1OCC(C)(C)OC [Compound 378]
≤ 2000 nM | N#Cc1ccc2n1-c1ccccc1OC21CCN(C(=O)c2ccc(O)cc2)CC1 [Compound 671]
2000 to 5000 nM | CCc1ccc(C(=O)N2CCC3(CC2)Oc2cc(CN(C)C)ccc2-n2cccc23)cc1OC [Compound 454]
≤ 2000 nM | N#Cc1ccc2n1-c1ccccc1OC21CCN(C(=O)c2ccc(OC[C@@H](O)CO)cc2)CC1 [Compound 293]
> 5000 nM | COCc1ccc2c(c1)OC1(CCN(C(=O)c3ccc(S(=O)(=O)C(C)C)cc3)CC1)c1ccc(C#N)n1-2 [Compound 832]
≤ 2000 nM | CC(C)CS(=O)(=O)c1ccc(C(=O)N2CCC3(CC2)Oc2ccccc2-n2c(C(F)(F)F)ccc23)cc1 [Compound 11]
> 5000 nM | COc1ccc(C(=O)N2CCC3(CC2)Oc2cc(F)ccc2-n2c(C#N)ccc23)cc1C(F)(F)F [Compound 479]

Continued, molecule first:

Compound | IC50
Cn1ncc2c1-c1ccccc1OC21CCN(C(=O)c2cccc(F)c2F)CC1 [Compound 242] | > 5000 nM
Cc1cc(C)c(C(=O)N2CCC3(CC2)Oc2cc(Cl)ccc2-n2cccc23)c(=O)[nH]1 [Compound 22] | 2000 to 5000 nM
Cn1ncc2c1-c1ccccc1OC21CCN(C(=O)c2cccc(F)c2OC(F)F)CC1 [Compound 194] | ≤ 2000 nM
Cn1ncc2c1-c1ccccc1OC21CCN(C(=O)c2cc3ccccc3n2C)CC1 [Compound 317] | > 5000 nM
COCCCOc1ccc(C(=O)N2CCC3(CC2)Oc2cc(Cl)ccc2-n2cccc23)cc1C(F)(F)F [Compound 238] | ≤ 2000 nM
COc1ccc(C(=O)N2CCC3(CC2)Oc2ccccc2-n2c(C(F)(F)F)ccc23)c(F)c1 [Compound 875] | 2000 to 5000 nM
COc1cc(OC)c(C(=O)N2CCC3(CC2)Oc2ccccc2-n2cccc23)cc1CO [Compound 474] | 2000 to 5000 nM
O=C(c1ccc(S(=O)(=O)CC2CCOC2)cn1)N1CCC2(CC1)Oc1ccccc1-n1c(C(F)(F)F)ccc12 (stereo not drawn) [Compound 877] | ≤ 2000 nM
COc1ccc(OC)c(C(=O)N2CCC3(CC2)Oc2ccccc2-c2c3cnn2C)c1 [Compound 358] | 2000 to 5000 nM
Cn1cc2c(n1)-c1ccccc1OC21CCN(C(=O)c2cccc(F)c2OC(F)F)CC1 [Compound 388] | ≤ 2000 nM
Cc1cc(C)cc(C(=O)N2CCC3(CC2)Oc2cc(Cl)ccc2-n2cccc23)c1 [Compound 222] | ≤ 2000 nM
Cc1nc2ccc(C(=O)N3CCC4(CC3)Oc3ccccc3-c3nn(C)cc34)cc2s1 [Compound 611] | ≤ 2000 nM
Cc1cc(C(=O)N2CCC3(CC2)Oc2ccccc2-c2c3cnn2C)c(C)cc1OC(C)C [Compound 202] | ≤ 2000 nM
Cn1ncc2c1-c1ccccc1OC21CCN(C(=O)c2ccnc3ccccc23)CC1 [Compound 322] | 2000 to 5000 nM
COc1ccc2c(c1)-c1c(cnn1C)C1(CCN(C(=O)c3ccccc3OC(F)F)CC1)O2 [Compound 480] | ≤ 2000 nM
Cc1ccc(OC(C)C)c(C(=O)N2CCC3(CC2)Oc2ccccc2-c2c3cnn2C)c1 [Compound 710] | ≤ 2000 nM
COc1cc(C(F)(F)F)ccc1C(=O)N1CCC2(CC1)Oc1cc(Cl)ccc1-n1cccc12 [Compound 484] | ≤ 2000 nM
CC(C)(C)S(=O)(=O)c1ccsc1C(=O)N1CCC2(CC1)Oc1ccccc1-n1c(C(F)(F)F)ccc12 [Compound 207] | ≤ 2000 nM
